Assay results taken from patent US20180187184A1, “NOVEL CONSTRUCTS AND SCREENING METHODS” (Systasy Bioscience GmbH, priority 2016, published 2018).
Like-named read-outs stand apart in the source and are kept apart here.

Legend:
[1] = test system: primary neurons; assay: Rotenone dose-response cell viability assay (nuclei count, genomic DNA and total RNA quantification); assay type: cell-based, mouse; details: for IC50: Mus musculus, Primary neuron, 168 h
Experimental: Cells were incubated under appropriate culturing conditions until DIV14.
Cell nuclei were stained on DIV14 with Hoechst dye and evaluated with a Zeiss Observer Z1 microscope. Subsequently, the neuron cultures were lysed and gDNA as well as total RNA was isolated using the Qiagen AllPrep DNA/RNA Mini Kit. The gDNA and total RNA concentrations were determined using a UV spectrophotometer.
The present inventors first evaluated changes in the abundance of genomic DNA and total RNA in response to cytotoxic stress within a primary neuron population.

[2] = test system: E-SARE sensor; assay: E-SARE luciferase activity in primary neurons upon stimulation; assay type: cell-based, mouse; details: DIV14
From the text: For multiplate assays, cells were transfected (for cell lines) using Lipofectamine2000 (Invitrogen) according to the manufacturer's instructions or infected (for primary neurons) by an E-SARE-luciferase containing AAV with 500-1000 AAV GCs per cell.
The assay compares an unstimulated response with a stimulated response.
Finally, the E-SARE sensor not only responds to neuronal silencing (TTX/APV) and synaptic stimulation (BIC/4-AP), but can also be induced by brain-derived neurotrophic factor (BDNF) which is a well-established stimulus with functions in neuronal differentiation and plasticity (FIG. 6C) (Park H and Poo M. Nat Rev Neurosci. 2013 January; 14(1):7-23). The optimized and validated E-SARE sensor has been subsequently used for developing the pooled RNAi screen in primary neurons.

E-SARE sensor activity [2]	Molecule	IC50 ([1]; read-out: IC50, genomic DNA content)	IC50 ([1]; read-out: IC50, total RNA content)	IC50 ([1]; read-out: IC50, viable cells (pyknotic nuclei filtered out))	reduction of genomic DNA content ([1]; rotenone concentrations above 100 nM, 7 days)
–	C=C(C)[C@H]1Cc2c(ccc3c2O[C@@H]2COc4cc(OC)c(OC)cc4[C@@H]2C3=O)O1 [rotenone]	40 nM	15 nM	14 nM	~40%
induced	brain-derived neurotrophic factor (protein, UniProt P23560 19-247, looked up, well-established stimulus with functions in neuronal differentiation and plasticity) Neurotrophic factor BDNF …: APMKEANIRGQGGLAYPGVRTHGTLESVNGPKAGSRGLTSLADTFEHVIEELLDEDQKVRPNEENNKDADLYTSRVMLSSQVPLEPPLLFLLEEYKNYLDAANMSMRVRRHSDPARRGELSVCDSISEWVTAADKKTAVDMSGGTVTVLEKVPVSKGQLKQYFYETKCNPMGYTKEGCRGIDKRHWNSQCRTTQSYVRALTMDSKKRIGWRFIRIDTSCVCTLTIKRGR	–	–	–	–
